{"source": "patent US5250548A", "about": "“Angiotensin II receptor antagonists” (Abbott Laboratories, priority 1992, dated 1993)", "note": "Counter-ions that a name gives are not always drawn.", "data": [{"biological_target": "T1, angiotensin II receptor (Oryctolagus cuniculus, UniProt P34976)", "T1 construct": "Main abdominal aortas were removed and placed in Krebs-Henseleit buffer; from tissue; host or cells: main abdominal aorta rings (3 mm) of female New Zealand White rabbits", "T1 sequence (P34976 1-359)": "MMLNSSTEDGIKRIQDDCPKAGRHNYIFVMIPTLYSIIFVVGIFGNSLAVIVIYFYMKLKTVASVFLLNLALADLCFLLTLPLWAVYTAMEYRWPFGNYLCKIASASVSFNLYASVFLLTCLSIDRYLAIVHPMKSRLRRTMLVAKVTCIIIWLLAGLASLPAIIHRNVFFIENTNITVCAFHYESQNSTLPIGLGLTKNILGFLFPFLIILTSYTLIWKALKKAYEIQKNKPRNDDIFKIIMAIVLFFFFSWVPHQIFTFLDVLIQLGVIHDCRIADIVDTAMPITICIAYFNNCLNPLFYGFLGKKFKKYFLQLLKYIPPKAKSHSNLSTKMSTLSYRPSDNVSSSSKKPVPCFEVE", "test": "Angiotensin II functional assay: antagonism of contraction of rabbit aorta (isolated tissue, Schild analysis)", "parameters": "species or system rabbit (female New Zealand White)", "details": "antagonist incubated 30 minutes, negative logarithm of antagonist concentration that requires doubling of the angiotensin II concentration", "experimental": "(§1) Antagonism of Contraction of Rabbit Aorta The protocol reported by A. T Chiu and […]. Wong, et al. Hypertension, 13, 489-497 (1989)) was followed with a few modifications. Female New Zealand White rabbits weighing 2-5 kg were sedated with carbon dioxide and then sacrificed. Main abdominal aortas were removed and placed in Krebs-Henseleit buffer at room temperature. The tissues were cleaned of extraneous connective tissue, cut into 3 mm rings, and suspended within a 10 mL tissue bath. All dilutions of peptide preparations were made with 0.3% aqueous BSA. The tissues were primed with 55 mM potassium chloride. Tissues were pre-loaded with 1 g of tension. Tension was recorded on a model 7 Grass polygraph using FT03 transducers. At the end of the equilibrium period, a control cumulative concentration-contractile response curve for angiotensin II (A II: 1×10^-10 -10^-8 M) was obtained. The tissue was washed several times until the baseline was reached. Forty five minutes later, test compound (antagonist) was added and the tissue was incubated for 30 minutes. The concentration-response curve for A II was then repeated in the presence of the test compound. One dose of antagonist was tested per tissue only. […] All responses to the control agonist were calculated as a percentage of the maximum response.", "values": [{"smiles": "CCCN(Cc1ccc(-c2ccccc2-c2nnn[nH]2)cc1)c1nc(C)ncc1C(=O)O", "note": "[Example 99, 2-Methyl-4-{N-propyl-N-[(2'-[1H-tetrazol-5-yl]biphenyl-4-yl)methyl]amino}pyrimidine-5-carboxylic acid]", "pA2": 9.60}, {"smiles": "O=C(O)c1cccnc1N(Cc1ccc(-c2ccccc2-c2nn[nH]n2)cc1)CC1CC1", "note": "[Example 206, 2-{N-Cyclopropylmethyl-N-[ (2'-[1H-tetrazol-5-yl]biphenyl-4-yl)methyl]amino}pyridine-3-carboxylic acid]", "pA2": 8.93}]}, {"biological_target": "T1, angiotensin II receptor", "test": "Angiotensin II functional assay: antagonism of contraction of rabbit aorta (isolated tissue, Schild analysis)", "parameters": "species or system rabbit (female New Zealand White)", "details": "antagonist incubated 30 minutes, negative logarithm of antagonist concentration that requires doubling of the angiotensin II concentration, read-out: pA2 (converted)", "experimental": "as §1", "units": {"Kb": "nM"}, "values": [{"smiles": "CCCCN(Cc1ccc(-c2ccccc2-c2nnn[nH]2)cc1)c1ncncc1C(=O)O", "note": "[Example 53, 4-{N-butyl-N-[(2'-[1H-tetrazol-5-yl]biphenyl-4-yl)methyl]amino}pyrimidine-5-carboxylic acid hydrochloride]", "Kb": 0.126}, {"smiles": "CCCN(Cc1ccc(-c2ccccc2-c2nn[nH]n2)cc1)c1ncncc1C(=O)O", "note": "[Example 71, 4-{N-Propyl-N-[(2'-[1H-tetrazol-5yl]biphenyl-4-yl)methyl]amino}pyrimidine-5-carboxylic acid hydrochloride]", "Kb": 0.209}, {"smiles": "CCCCN(Cc1ccc(-c2ccccc2-c2nnn[nH]2)cc1)c1ncncc1C(=O)OCOC(=O)C(C)(C)C", "note": "[Example 82, Pivaloyloxymethyl 4-{N-butyl-N-[(2'-[1H-tetrazol-5-yl]biphenyl-4-yl)methyl]amino}pyrimidine-5-carboxylate]", "Kb": 0.331}, {"smiles": "CCCN(Cc1ccc(-c2ccccc2-c2nn[nH]n2)cc1)c1nc(C(F)(F)F)ncc1C(=O)O", "note": "[Example 114, 2-Trifluoromethyl-4-{N-propyl-N-[(2'-[1H-tetrazol-5-yl]biphenyl-4-yl)methyl]amino}pyrimidine-5-carboxylic acid]", "Kb": 1.62}, {"smiles": "CCCCN(Cc1ccc(-c2ccccc2-c2nnn[nH]2)cc1)c1ncncc1C(=O)OC(C)OC(=O)C1CCN(C)CC1", "note": "(stereo not shown) [Example 121, 1-(1-Methylpiperidin-4-ylcarbonyloxy)ethyl 4-{N-butyl-N-[(2'-[1H-tetrazol-5-yl]biphenyl-4-yl)methyl]amino}pyrimidine-5-carboxylate]", "Kb": 0.257}, {"smiles": "CCCN(Cc1ccc(-c2ccccc2-c2nn[nH]n2)cc1)c1ncccc1C(O)C(F)(F)C(=O)OCC", "note": "(stereo not shown) [Example 135, 3-(2.2-Difluoro-2-ethoxycarbonyl-1-hydroxyethyl)-2-{N-propyl-N-[(2'-[1H-tetrazol-5-yl]biphenyl-4-yl)methyl]amino}pyridine]", "Kb": 3.39}, {"smiles": "CCCN(Cc1ccc(-c2ccccc2-c2nnn[nH]2)cc1)c1ncccc1C(=O)C(F)(F)C(=O)OCC", "note": "[Example 137, 3-[2,2-Difluoro-2-(ethoxycarbonyl)acetyl]-2-{N-propyl-N-[(2'-[1H-tetrazol-5-yl]biphenyl-4-yl]methyl]amino}pyridine]", "Kb": 4.57}, {"smiles": "CCCN(Cc1ccc(-c2ccccc2-c2nn[nH]n2)cc1)c1ncccc1C(O)CC(=O)O", "note": "(stereo not shown) [Example 140, 3-(2-Carboxy-1-hydroxyethyl)-2-{N-propyl-N-[(2'-[1H-tetrazol-5-yl]biphenyl-4-yl)methyl]amino}pyridine]", "Kb": 1.45}, {"smiles": "CCCN(Cc1ccc(-c2ccccc2-c2nn[nH]n2)cc1)c1ncccc1NS(=O)(=O)C(F)(F)F", "note": "[Example 147, 3-Trifluoromethanesulfonamido-2-{N-propyl-N-[(2'-[1H-tetrazol-5-yl]biphenyl-4-yl)methyl]amino}pyridine]", "Kb": 0.631}, {"smiles": "CCCCN(Cc1ccc(-c2ccccc2-c2nn[nH]n2)cc1)c1nccnc1C(=O)O", "note": "[Example 157, 3-{N-Butyl-N-[(2'-[1H-tetrazol-5-yl]biphenyl-4-yl)methyl]amino}pyrazine-2-carboxylic acid]", "Kb": 0.135}, {"smiles": "CCCN(Cc1ccc(-c2ccccc2-c2nn[nH]n2)cc1)c1nc(F)ccc1C(=O)O", "note": "[Example 160, 2-{N-Propyl-N-[(2'-[1H-tetrazol-5-yl]biphenyl-4-yl)methyl]amino}-6-fluoropyridine-3-carboxylic acid]", "Kb": 0.234}, {"smiles": "CCCCN(Cc1ccc(-c2ccccc2-c2nnn[nH]2)cc1)c1nc(F)ccc1C(=O)O", "note": "[Example 162, 2-{N-Butyl-N-[(2'-[1H-tetrazol-5-yl]biphenyl-4-yl)methyl]amino}-6-fluoropyridine-3-carboxylic acid]", "Kb": 0.309}, {"smiles": "CCCCN(Cc1ccc(-c2ccccc2-c2nnn[nH]2)cc1)c1nc(OC)ccc1C(=O)O", "note": "[Example 163, 2-{N-Butyl-N-[(2' -[1H-tetrazol-5-yl]biphenyl-4-yl)methyl]amino}-6-methoxypyridine-3-carboxylic acid]", "Kb": 0.309}, {"smiles": "CCCCN(Cc1ccc(-c2ccccc2-c2nn[nH]n2)cc1)c1ncc(C(=O)O)cn1", "note": "[Example 167, 2-{N-Butyl-N-[(2'-[1H-tetrazol-5-yl]biphenyl-4-yl)methyl]amino}pyrimidine-5-carboxylic acid]", "Kb": 3.31}, {"smiles": "CCCCN(Cc1ccc(-c2ccccc2-c2nn[nH]n2)cc1)c1nnc(Cl)cc1C(=O)O", "note": "[Example 168, 6-{N-Butyl-N-[(2'-[1H-tetrazol-5-yl]biphenyl-4-yl)methyl]amino}-3-chloropyridazine-5-carboxylic acid]", "Kb": 0.851}, {"smiles": "CCCCN(Cc1ccc(-c2ccccc2-c2nn[nH]n2)cc1)c1nnccc1C(=O)O", "note": "[Example 169, 3-{N-Butyl-N-[(2'-[1H-tetrazol-5-yl]biphenyl-4-yl)methyl]amino}pyridazine-4-carboxylic acid]", "Kb": 0.0891}, {"smiles": "CCCN(Cc1ccc(-c2ccccc2-c2nn[nH]n2)cc1)c1nnccc1C(=O)O", "note": "[Example 172, 3-{N-Propyl-N-[(2'-[1H-tetrazol-5-yl]biphenyl-4-yl)methyl]amino}pyridazine-4-carboxylic acid]", "Kb": 0.214}, {"smiles": "CCCN(Cc1ccc(-c2ccccc2-c2nn[nH]n2)cc1)c1ncc(F)cc1C(=O)O", "note": "[Example 180, 5-Fluoro-2-{N-propyl-N-[(2'-[1H-tetrazol-5-yl]biphenyl-4-yl)methyl]amino}pyridine-3-carboxylic acid]", "Kb": 0.912}, {"smiles": "CCCN(Cc1ccc(-c2ccccc2-c2nn[nH]n2)cc1)c1nccc(C)c1C(=O)O", "note": "[Example 194, 4-Methyl-2-{N-propyl-N-[(2'-[1H-tetrazol-5-yl]biphenyl-4-yl)methyl]amino}pyridine-3-carboxylic acid]", "Kb": 0.229}, {"smiles": "CCCN(Cc1ccc(-c2ccccc2-c2nn[nH]n2)cc1)c1ncccc1C(=O)NS(=O)(=O)c1ccccc1", "note": "[Example 203, 2-{N-Propyl-N-[(2'-[1H-tetrazol-5-yl]biphenyl-4-yl)methyl]amino}pyridine-3-(N-benzenesulfonyl)carboxamide]", "Kb": 2.24}, {"smiles": "O=C(O)c1cccnc1NCc1ccc(-c2ccccc2-c2nn[nH]n2)cc1", "note": "[Example 226]", "Kb": 1.29}, {"smiles": "CCCCN(Cc1ccc(-c2ccccc2-c2nn[nH]n2)cc1)c1ncccc1C(=O)O", "note": "[Example 229, 2-{N-Butyl-N-[(2'-[1H-tetrazol-5-yl]biphenyl-4-yl)methyl]amino}pyridine-3-carboxylic acid]", "Kb": 0.339}]}, {"system": "not given", "test": "not given", "details": "cited from earlier work", "values": [{"smiles": "CNCC(=O)N[C@@H](CCCN=C(N)N)C(=O)N[C@H](C(=O)N[C@@H](Cc1ccc(O)cc1)C(=O)N[C@H](C(=O)N[C@@H](Cc1cnc[nH]1)C(=O)N1CCC[C@H]1C(=O)N[C@@H](C)C(=O)O)C(C)C)C(C)C", "note": "[saralasin, [Sar^1,Ala^8] angiotensin II]", "oral bioavailability": "very poor oral bioavailability"}]}, {"system": "angiotensin II receptor", "test": "not given", "details": "cited from earlier work", "values": [{"smiles": "CNCC(=O)N[C@@H](CCCN=C(N)N)C(=O)N[C@H](C(=O)N[C@@H](Cc1ccc(O)cc1)C(=O)N[C@H](C(=O)N[C@@H](Cc1cnc[nH]1)C(=O)N1CCC[C@H]1C(=O)N[C@@H](C)C(=O)O)C(C)C)C(C)C", "note": "[saralasin, [Sar^1,Ala^8] angiotensin II]", "antagonism of the actions of angiotensin II": "potent antagonist of the actions of angiotensin II"}]}, {"system": "hypertension and congestive heart failure", "test": "not given", "details": "cited from earlier work", "values": [{"smiles": "C[C@H](CS)C(=O)N1CCC[C@H]1C(=O)O", "note": "[captopril]", "clinical efficacy": "clinical efficacy in treating hypertension and congestive heart failure"}, {"smiles": "CCOC(=O)[C@H](CCc1ccccc1)N[C@@H](C)C(=O)N1CCC[C@H]1C(=O)O", "note": "[enalapril]", "clinical efficacy": "clinical efficacy in treating hypertension and congestive heart failure"}, {"smiles": "COc1ccc(C[C@H](NC(=O)CC(C)(C)N)C(=O)N[C@@H](Cc2cnc[nH]2)C(=O)N[C@@H](CC2CCCCC2)[C@@H](O)[C@@H](O)CC(C)C)cc1", "note": "[enalkiren]", "clinical efficacy": "clinical efficacy in treating hypertension and congestive heart failure"}]}, {"system": "renal artery ligated rats", "test": "In vivo blood pressure lowering in renal artery ligated hypertensive rats", "parameters": "species or system rat", "details": "dose of 30 mg/kg", "values": [{"smiles": "CCCN(Cc1ccc(-c2ccccc2-c2nnn[nH]2)cc1)c1ncccc1C(=O)O", "note": "[Example 88, 2-{N-Propyl-N-[(2'-[1H-tetrazol-5-yl]biphenyl-4-yl)methyl]amino}pyridine-3-carboxylic acid]", "reduction in mean arterial blood pressure (MAP)": "caused a reduction in mean arterial blood pressure (MAP)"}]}, {"system": "blood pressure", "test": "not given", "details": "after intravenous administration; due to its activity as an angiotensin receptor agonist; cited from earlier work", "values": [{"smiles": "CNCC(=O)N[C@@H](CCCN=C(N)N)C(=O)N[C@H](C(=O)N[C@@H](Cc1ccc(O)cc1)C(=O)N[C@H](C(=O)N[C@@H](Cc1cnc[nH]1)C(=O)N1CCC[C@H]1C(=O)N[C@@H](C)C(=O)O)C(C)C)C(C)C", "note": "[saralasin, [Sar^1,Ala^8] angiotensin II]", "effect on blood pressure": "initial increase in blood pressure after intravenous administration"}]}]}
